Measurements reported in US5290795A, “Substituted urea compound and use” (Novo Nordisk N/A, priority 1990, dated 1994).
pIC50: −log10 of the molar value.

Key:
5-HT3 receptor [1] = target: T1, 5-HT3 receptor (Cavia porcellus, UniProt O70212); assay: Inhibition of 5-HT-induced contractions in isolated guinea pig ileum; type: cell-based; conditions: methysergide 10^-6 M, 20 min incubation, 5-HT contact time 30 sec, 37° C., read-out: A2 (concentration of the antagonist giving a dose ratio of 2) (converted)
T1 construct: the terminal 15 cm of ileum removed, and 1.5-2.0 cm lengths prepared and mounted in 10 ml organ baths; from tissue; host or cells: isolated guinea pig terminal ileum
T1 sequence (O70212 24-490 limits assumed): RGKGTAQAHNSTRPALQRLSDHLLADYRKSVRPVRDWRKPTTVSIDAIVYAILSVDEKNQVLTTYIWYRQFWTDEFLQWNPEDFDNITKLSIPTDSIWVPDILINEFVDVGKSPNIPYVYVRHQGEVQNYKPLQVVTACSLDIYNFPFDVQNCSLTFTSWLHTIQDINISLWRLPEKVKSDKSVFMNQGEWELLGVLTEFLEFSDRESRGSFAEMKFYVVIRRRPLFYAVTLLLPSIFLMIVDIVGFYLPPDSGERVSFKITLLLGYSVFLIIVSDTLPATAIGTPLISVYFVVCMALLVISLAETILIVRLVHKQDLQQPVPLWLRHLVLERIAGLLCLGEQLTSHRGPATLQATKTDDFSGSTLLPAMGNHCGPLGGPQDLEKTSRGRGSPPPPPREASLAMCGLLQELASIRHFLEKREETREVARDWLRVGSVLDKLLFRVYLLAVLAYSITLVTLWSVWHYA
Protocol: Inhibition of 5-HT-Induced Contractions in Isolated Guinea Pig Ileum
Compounds of formula (I) were tested for their 5HT3 -antagonist activity using the following method:
5-HT produces contractions of the guinea pig ileum via 2 different receptors. 1) direct contractions via 5-HT2 receptors on the muscle, 2) indirect contractions via 5-HT3 receptors on intrinsic gut neurones, producing acetylcholine release. By administering 5-HT to lengths of ileum in the presence of methysergide (to block 5-HT2 receptors) you can assay 5-HT3 receptor activity.
Guinea pigs were killed by means of cervical dislocation the terminal 15 cm of ileum removed, and 1.5-2.0 cm lengths prepared and mounted in 10 ml organ baths containing calcium deficient tyrodes of the following composition (mM) NaCl (136.9); KCl (2.68); CaCl2 (0.9); MgCl2 (1.05); NaCO3 (11.9); NaH2 PO4 (0.42); glucose (5.55) and containing methysergide (10^-6 M) maintained at 37° C. and gassed with 95% O2 and 5% CO2. The mechanical activity of the muscle was measured by a HSE 351 isometric transducer connected via a HSE bridge amplifier to a potentiometric pen recorder. […]
The maximum response to acetylcholine for each tissue is measured and the responses to 5-HT calculated as percentage maximum of the acetylcholine (Ach) maximum response in that tissue. The peak of the 5-HT response is measured. […]

5-HT3 receptor [2] = target: T2, 5-HT3 receptor (Mus musculus, UniProt P23979); assay: 5-HT3 receptor binding to N1E-115 neuroblastoma cells (3H-Quipazine displacement); conditions: for displacement of 3H-Quipazine binding: specificity of the assay, N1E-115 neuroblastoma cells, in words
T2 construct: Harvested cells were homogenized in Tris buffer; endogenous in cells; host or cells: N1E-115 mouse neuroblastoma cells
T2 sequence (P23979 24-489): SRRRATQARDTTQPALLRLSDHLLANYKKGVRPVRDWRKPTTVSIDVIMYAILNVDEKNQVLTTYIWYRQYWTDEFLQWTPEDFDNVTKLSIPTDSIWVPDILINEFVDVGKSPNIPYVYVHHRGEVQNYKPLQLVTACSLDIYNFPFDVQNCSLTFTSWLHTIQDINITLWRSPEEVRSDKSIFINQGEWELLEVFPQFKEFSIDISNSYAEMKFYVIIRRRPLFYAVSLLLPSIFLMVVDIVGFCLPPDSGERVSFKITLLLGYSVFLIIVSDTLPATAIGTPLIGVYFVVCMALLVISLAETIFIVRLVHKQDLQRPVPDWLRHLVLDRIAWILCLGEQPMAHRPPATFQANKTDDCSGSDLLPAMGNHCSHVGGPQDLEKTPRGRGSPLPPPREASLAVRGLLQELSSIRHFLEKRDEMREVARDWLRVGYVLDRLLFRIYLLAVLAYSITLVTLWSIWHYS
Protocol: 5-HT3 Receptor Binding to N1E-115 Neuroblastoma Cells
The binding of 3H-quipazine to N1E-115 neuroblastoma cells in-vitro was determined by a modification of the method of Hoyer and Neijt (Hoyer, D. and Neijt, H. C., 1988, Molecular Pharmacology, 33:303-309). […] The cells were grown to a density of 8-15×10^7 cells per bottle and harvested by vigorous shaking. Harvested cells were homogenized in Tris buffer (20 mm, pH=7.5) containing 154 mM NaCl using a Brinkmann Polytron. The homogenate was centrifuged at 900×g and the supernatant was used directly in the binding assay. The supernatant was diluted at a concentration of 2×10^6 cells per ml in Tris buffer. Binding assays consisted of 50 μL 3H-Quipazine (1 nM final concentration), 250 μL membrane suspension, and 200 μL drug or buffer. Nonspecific binding was determined by the addition of 10 μM MDL 72222. Tubes were incubated at […] for 60 minutes, followed by filtration through GFB filters under vacuum. The filters were then washed with ice-cold Tris buffer.

SMILES	Kb (5-HT3 receptor [1]) [µM]	pIC50 (5-HT3 receptor [2])	displacement of 3H-Quipazine binding (5-HT3 receptor [2])
CN1[C@@H]2CCC[C@H]1C[C@@H](NC(=O)Nc1ccsc1-c1nc(C3CC3)no1)C2 [Example 4, N-(2-(3-Cyclopropyl-1,2,4-oxadiazol-5-yl)-3-thienyl)-N^1 - (endo-9-methyl-9-azabicyclo[3.3.1]non-3yl)urea]	103	8.17	–
CCCCc1noc(-c2sccc2NC(=O)N[C@H]2C[C@H]3CCC[C@@H](C2)N3C)n1 [Example 7, N-(2-(3-Butyl-1,2,4-oxadiazol-5-yl)-3-thienyl)-N^1-(endo-9-methyl-9-azabicyclo[3.3.1]non-3-yl)urea]	24.8	8.64	–
CCCN(CCC)C1CCc2cccc(O)c2C1 (stereo not shown) [Example 8-OH-DPAT]	–	–	inability
CN1[C@@H]2CC[C@H]1C[C@@H](OC(=O)c1c[nH]c3ccccc13)C2 [ICS 205-930]	–	–	potent displacers
CN1[C@@H]2CC[C@H]1C[C@@H](OC(=O)c1cc(Cl)cc(Cl)c1)C2 [MDL 72222]	–	–	potent displacers
O=C(c1ccc(F)cc1)C1CCN(CCn2c(=O)[nH]c3ccccc3c2=O)CC1 [ketanserin]	–	–	inability
c1ccc2nc(N3CCNCC3)ccc2c1 [quipazine]	–	–	potent displacers
COc1cc(N)c(Cl)cc1C(=O)NC1CN2CCC1CC2 (stereo not shown) [zacopride]	–	–	potent displacers
